Data from BindingDB's records for doi:10.1016/s0968-0896(98)00004-2 (Sankyo, 1998).

Molecular target: T1, Dimer of Gag-Pol polyprotein [489-587] (Human immunodeficiency virus 1, UniProt P12497)
T1 construct: 489-587
Test: Protease Inhibition Assay
Description: The inhibitory activities of the compounds toward HIV-1 PR were determined by sodium dodecyl sulfate-polyacrylamide gel electrophoresis (SDS-PAGE) assay. The IC50 values of active compounds were determined using the partially purified protease and the synthetic substrate Ac-Ser-Gln-AsnTyr-Pro-Ile-Val-NH2.

SMILES | IC50 [nM]
CC(C)(C)NC(=O)[C@@H]1C[C@H](Cl)CN1C(=O)[C@@H](O)[C@H](Cc1ccccc1)NC(=O)c1ccccc1I | 14
Cc1cccc(C)c1C(=O)N[C@@H](Cc1ccccc1)[C@H](O)C(=O)N1C[C@@H](Cl)C[C@H]1C(=O)NC(C)(C)C | 3.6
CC(C)(C)NC(=O)[C@@H]1C[C@H](Cl)CN1C(=O)[C@@H](O)[C@H](Cc1ccccc1)NC(=O)c1ccccc1N | 39
CC(C)(C)NC(=O)[C@@H]1C[C@H](Cl)CN1C(=O)[C@@H](O)[C@H](Cc1ccccc1)NC(=O)c1cccc(O)c1 | 9
CC(C)(C)NC(=O)[C@@H]1C[C@H](Cl)CN1C(=O)[C@@H](O)[C@H](Cc1ccccc1)NC(=O)c1ccccc1Cl [2-Chlorobenzoyl-(2S,3S)-AHPBA-4(S)-Cl-Pro-NH-t-Bu] | 11
Cc1ccccc1C(=O)N[C@@H](Cc1ccccc1)[C@H](O)C(=O)N1C[C@@H](Cl)C[C@H]1C(=O)NC(C)(C)C [2-Methylbenzoyl-(2S,3S)-AHPBA-4(S)-Cl-Pro-NH-t-Bu] | 5.1
CC(C)(C)NC(=O)[C@@H]1C[C@H](Cl)CN1C(=O)[C@@H](O)[C@H](Cc1ccccc1)NC(=O)c1cccc(F)c1 [3-Fluorobenzoyl-(2S,3S)-AHPBA-4(S)-Cl-Pro-NH-t-Bu] | 20
CC(C)(C)NC(=O)[C@@H]1C[C@H](Cl)CN1C(=O)[C@@H](O)[C@H](Cc1ccccc1)NC(=O)c1ccc(O)cc1 [4-Hydroxybenzoyl-(2S,3S)-AHPBA-4(S)-Cl-Pro-NH-t-Bu] | 33
COc1cccc(C(=O)N[C@@H](Cc2ccccc2)[C@H](O)C(=O)N2C[C@@H](Cl)C[C@H]2C(=O)NC(C)(C)C)c1O [(2-Hydroxy-3-methoxy)benzoyl-(2S,3S) -AHPBA-4(S)-Cl-Pro-NH-t-Bu] | > 1000
CO[C@@H]1OCCC[C@@H]1OC(=O)N[C@@H](Cc1ccccc1)[C@H](O)C(=O)N1C[C@@H](Cl)C[C@H]1C(=O)NC(C)(C)C [(2R,3S)-2-methoxyoxan-3-yl N-[(2S,3S)-4-[(2S,4S)-2-(tert-butylcarbamoyl)-4-chloropyrrolidin-1-yl]-3-hydroxy-4-oxo-1-phenylbutan-2-yl]carbamate] | 37
CO[C@H]1OCC=C[C@H]1OC(=O)N[C@@H](Cc1ccccc1)[C@H](O)C(=O)N1C[C@@H](Cl)C[C@H]1C(=O)NC(C)(C)C [(2S,3R)-2-methoxy-3,6-dihydro-2H-pyran-3-yl N-[(2S,3S)-4-[(2S,4S)-2-(tert-butylcarbamoyl)-4-chloropyrrolidin-1-yl]-3-hydroxy-4-oxo-1-phenylbutan-2-yl]carbamate] | 35
CC(C)(C)NC(=O)[C@@H]1C[C@H](Cl)CN1C(=O)[C@@H](O)[C@H](Cc1ccccc1)NC(=O)c1cccc(O)c1Br [(2S,4S)-1-[(2S,3S)-3-[(2-bromo-3-hydroxyphenyl)formamido]-2-hydroxy-4-phenylbutanoyl]-N-tert-butyl-4-chloropyrrolidine-2-carboxamide] | 1.5
CC(C)(C)NC(=O)[C@@H]1C[C@H](Cl)CN1C(=O)[C@@H](O)[C@H](Cc1ccccc1)NC(=O)c1ccccc1Br [(2S,4S)-1-[(2S,3S)-3-[(2-bromophenyl)formamido]-2-hydroxy-4-phenylbutanoyl]-N-tert-butyl-4-chloropyrrolidine-2-carboxamide] | 12
Cc1c(N)cccc1C(=O)N[C@@H](Cc1ccccc1)[C@H](O)C(=O)N1C[C@@H](Cl)C[C@H]1C(=O)NC(C)(C)C [(2S,4S)-1-[(2S,3S)-3-[(3-amino-2-methylphenyl)formamido]-2-hydroxy-4-phenylbutanoyl]-N-tert-butyl-4-chloropyrrolidine-2-carboxamide] | 5.4
CC(C)(C)NC(=O)[C@@H]1C[C@H](Cl)CN1C(=O)[C@@H](O)[C@H](Cc1ccccc1)NC(=O)c1cccc2ccccc12 [(2S,4S)-N-tert-butyl-4-chloro-1-[(2S,3S)-2-hydroxy-3-(naphthalen-1-ylformamido)-4-phenylbutanoyl]pyrrolidine-2-carboxamide] | 9
CC(C)(C)NC(=O)[C@@H]1C[C@H](Cl)CN1C(=O)[C@@H](O)[C@H](Cc1ccccc1)NC(=O)c1ccccc1O [(2S,4S)-N-tert-butyl-4-chloro-1-[(2S,3S)-2-hydroxy-3-[(2-hydroxyphenyl)formamido]-4-phenylbutanoyl]pyrrolidine-2-carboxamide] | > 1000
Cc1ccc(O)c(C)c1C(=O)N[C@@H](Cc1ccccc1)[C@H](O)C(=O)N1C[C@@H](Cl)C[C@H]1C(=O)NC(C)(C)C [(2S,4S)-N-tert-butyl-4-chloro-1-[(2S,3S)-2-hydroxy-3-[(3-hydroxy-2,6-dimethylphenyl)formamido]-4-phenylbutanoyl]pyrrolidine-2-carboxamide] | 2.5

SMILES | IC50 [nM]
CCCc1c(O)cccc1C(=O)N[C@@H](Cc1ccccc1)[C@H](O)C(=O)N1C[C@@H](Cl)C[C@H]1C(=O)NC(C)(C)C [(2S,4S)-N-tert-butyl-4-chloro-1-[(2S,3S)-2-hydroxy-3-[(3-hydroxy-2-propylphenyl)formamido]-4-phenylbutanoyl]pyrrolidine-2-carboxamide] | 1.6
CC(C)(C)NC(=O)[C@@H]1C[C@H](Cl)CN1C(=O)[C@@H](O)[C@H](Cc1ccccc1)NC(=O)c1ccccc1 [(2S,4S)-N-tert-butyl-4-chloro-1-[(2S,3S)-2-hydroxy-4-phenyl-3-(phenylformamido)butanoyl]pyrrolidine-2-carboxamide] | 26
CCCc1ccccc1C(=O)N[C@@H](Cc1ccccc1)[C@H](O)C(=O)N1C[C@@H](Cl)C[C@H]1C(=O)NC(C)(C)C [(2S,4S)-N-tert-butyl-4-chloro-1-[(2S,3S)-2-hydroxy-4-phenyl-3-[(2-propylphenyl)formamido]butanoyl]pyrrolidine-2-carboxamide] | 29
CCc1c(O)cccc1C(=O)N[C@@H](Cc1ccccc1)[C@H](O)C(=O)N1C[C@@H](Cl)C[C@H]1C(=O)NC(C)(C)C [(2S,4S)-N-tert-butyl-4-chloro-1-[(2S,3S)-3-[(2-ethyl-3-hydroxyphenyl)formamido]-2-hydroxy-4-phenylbutanoyl]pyrrolidine-2-carboxamide] | 0.9
Cc1c(F)cccc1C(=O)N[C@@H](Cc1ccccc1)[C@H](O)C(=O)N1C[C@@H](Cl)C[C@H]1C(=O)NC(C)(C)C [(3-Fluoro-2-methyl)benzoyl-(2S,3S)-AHPBA-4(S)-Cl-Pro-NH-t-Bu] | 5.6
Cc1c(O)cccc1C(=O)N[C@@H](Cc1ccccc1)[C@H](O)C(=O)N1C[C@@H](Cl)C[C@H]1C(=O)NC(C)(C)C [(3-Hydroxy-2-methylbenzoyl)-(2(S)-hydroxy-3(S)-amino-phenylbutanoyl)-4(S)-Cl-Pro-NH-t-Bu] | 0.8
CC(C)(C)NC(=O)[C@@H]1C[C@H](Cl)CN1C(=O)[C@@H](O)[C@H](Cc1ccccc1)NC(=O)O[C@@H]1CO[C@H]2[C@@H]1OC[C@H]2O [(3R,3aR,6R,6aR)-6-hydroxy-hexahydrofuro[3,2-b]furan-3-yl N-[(2S,3S)-4-[(2S,4S)-2-(tert-butylcarbamoyl)-4-chloropyrrolidin-1-yl]-3-hydroxy-4-oxo-1-phenylbutan-2-yl]carbamate] | 25
CC(C)(C)NC(=O)[C@@H]1C[C@H](Cl)CN1C(=O)[C@@H](O)[C@H](Cc1ccccc1)NC(=O)O[C@H]1CCCOC1 [(3S)-oxan-3-yl N-[(2S,3S)-4-[(2S,4S)-2-(tert-butylcarbamoyl)-4-chloropyrrolidin-1-yl]-3-hydroxy-4-oxo-1-phenylbutan-2-yl]carbamate] | 14
CC(C)(C)NC(=O)[C@@H]1C[C@H](Cl)CN1C(=O)[C@@H](O)[C@H](Cc1ccccc1)NC(=O)O[C@H]1CCOC1 [(3S)-oxolan-3-yl N-[(2S,3S)-4-[(2S,4S)-2-(tert-butylcarbamoyl)-4-chloropyrrolidin-1-yl]-3-hydroxy-4-oxo-1-phenylbutan-2-yl]carbamate] | 5.1
COC1O[C@H]2[C@H](OC(=O)N[C@@H](Cc3ccccc3)[C@H](O)C(=O)N3C[C@@H](Cl)C[C@H]3C(=O)NC(C)(C)C)[C@H](OC)OC[C@H]2O1 (stereo partly drawn) [(3aR,6R,7S,7aR)-2,6-dimethoxy-hexahydro-[1,3]dioxolo[4,5-c]pyran-7-yl N-[(2S,3S)-4-[(2S,4S)-2-(tert-butylcarbamoyl)-4-chloropyrrolidin-1-yl]-3-hydroxy-4-oxo-1-phenylbutan-2-yl]carbamate] | > 1000
CC(C)(C)NC(=O)[C@@H]1C[C@H](Cl)CN1C(=O)[C@@H](O)[C@H](Cc1ccccc1)NC(=O)OC1CCS(=O)(=O)C1 (stereo partly drawn) [[3(R,S) - (1,1 - Dioxo - tetrahydrothiophenyl)oxy]carbonyl-(2S,3S)-AHPBA-4(S)-Cl-Pro-NH-t-Bu] | 11
CC(C)(C)NC(=O)[C@@H]1C[C@H](Cl)CN1C(=O)[C@@H](O)[C@H](Cc1ccccc1)NC(=O)OC1CCOC1 (stereo partly drawn) [[3(R,S)-(Tetrahydrofuranyl)oxy]carbonyl-(2S,3S)-AHPBA-4(S)-Cl-Pro-NH-t-Bu] | 4.9
CC(C)(C)NC(=O)[C@@H]1C[C@H](Cl)CN1C(=O)[C@@H](O)[C@H](Cc1ccccc1)NC(=O)O[C@H]1C=CCOC1 [[5(R) - (5,6 - Dihydro - 2H-pyranyl)oxy]carbonyl - (2S,3S)-AHPBA-4(S)-Cl-Pro-NH-t-Bu] | 4.5
CO[C@@H]1OCC=C[C@@H]1OC(=O)N[C@@H](Cc1ccccc1)[C@H](O)C(=O)N1C[C@@H](Cl)C[C@H]1C(=O)NC(C)(C)C [[5(S)-[6(R)-Methoxy-5,6-dihydro-2H-pyranyl]oxy]carbonyl-(2S,3S)-AHPBA-4(S)-Cl-Pro-NH-t-Bu] | 29
CC(C)(C)NC(=O)[C@@H]1C[C@H](Cl)CN1C(=O)[C@@H](O)[C@H](Cc1ccccc1)NC(=O)c1ccc2ccccc2c1 [beta-Naphthoyl-(2S,3S)-AHPBA-4(S)-Cl-Pro-NH-t-Bu] | 50
CC(C)(C)NC(=O)[C@@H]1C[C@H](Cl)CN1C(=O)[C@@H](O)[C@H](Cc1ccccc1)NC(=O)OC1CCCC1 [cyclopentyl N-[(2S,3S)-4-[(2S,4S)-2-(tert-butylcarbamoyl)-4-chloropyrrolidin-1-yl]-3-hydroxy-4-oxo-1-phenylbutan-2-yl]carbamate] | 19
